Laboratory results published in ChEMBL document CHEMBL3045271, “Synthesis and insecticidal activity of new phosphoramidates” (2012).

Key:
Type in all cases: functional
Ascia monuste [1] = test: Insecticidal activity against second-instar larvae of Ascia monuste assessed as mortality at compound administered topically at 1 ug/mg insect measured after 24 hr
Ascia monuste [2] = test: Insecticidal activity against second-instar larvae of Ascia monuste assessed as mortality at compound administered topically at 1 ug/mg insect measured after 48 hr
Plutella xylostella [3] = test: Insecticidal activity against second-instar larvae of Plutella xylostella (diamondback moth) assessed as mortality at compound administered topically at 1 ug/mg insect measured after 72 hr
Plutella xylostella [4] = test: Insecticidal activity against second-instar larvae of Plutella xylostella (diamondback moth) assessed as mortality at compound administered topically at 1 ug/mg insect measured after 48 hr
Plutella xylostella [5] = test: Insecticidal activity against second-instar larvae of Plutella xylostella (diamondback moth) assessed as mortality at compound administered topically at 1 ug/mg insect measured after 24 hr
Diaphania hyalinata [6] = test: Insecticidal activity against second-instar larvae of Diaphania hyalinata assessed as mortality at compound administered topically at 1 ug/mg insect measured after 48 hr
Diaphania hyalinata [7] = test: Insecticidal activity against second-instar larvae of Diaphania hyalinata assessed as mortality at compound administered topically at 1 ug/mg insect measured after 72 hr
Diaphania hyalinata [8] = test: Insecticidal activity against second-instar larvae of Diaphania hyalinata assessed as mortality at compound administered topically at 1 ug/mg insect measured after 24 hr
Ascia monuste [9] = test: Insecticidal activity against second-instar larvae of Ascia monuste assessed as mortality at compound administered topically at 1 ug/mg insect measured after 72 hr

SMILES | mortality (Ascia monuste [1]) [%] | mortality (Ascia monuste [2]) [%] | mortality (Plutella xylostella [3]) [%] | mortality (Plutella xylostella [4]) [%] | mortality (Plutella xylostella [5]) [%] | mortality (Diaphania hyalinata [6]) [%] | mortality (Diaphania hyalinata [7]) [%] | mortality (Diaphania hyalinata [8]) [%] | mortality (Ascia monuste [9]) [%]
O=P(Oc1ccco1)(N1CCCCC1)N1CCCCC1 | 70 | 75 | 20 | 10 | 5 | 7.5 | 10 | 7.5 | 75
CCN(CC)P(=O)(Oc1occc1Cc1ccc(Br)cc1)N(CC)CC | 2.5 | 5 | 32.5 | 20 | 7.5 | 27.5 | 35 | 27.5 | 7.5
Cc1ccc(CC2=CCOC2=O)cc1 | 5 | 12.5 | 25 | 17.5 | 12.5 | 10 | 12.5 | 10 | 17.5
CCN(CC)P(=O)(Oc1occc1Cc1cccc(Br)c1)N(CC)CC | 2.5 | 7.5 | 47.5 | 32.5 | 27.5 | 25 | 27.5 | 25 | 10
CCN(CC)P(=O)(Oc1occc1Cc1ccccc1)N(CC)CC | 22.5 | 27.5 | 45 | 30 | 25 | 5 | 5 | 5 | 25
CCN(CC)P(=O)(Oc1ccco1)Oc1ccco1 | 62.5 | 65 | 30 | 20 | 17.5 | 55 | 70 | 55 | 67.5
CCN(CC)P(=O)(Oc1occc1Cc1ccccc1F)N(CC)CC | 22.5 | 27.5 | 35 | 22.5 | 12.5 | 23.3 | 23.3 | 23.3 | 32.5
CCN(CC)P(=O)(Oc1occc1Cc1cccc(C)c1)N(CC)CC | 7.5 | 12.5 | 45 | 40 | 22.5 | 15 | 15 | 15 | 12.5
CCN(CC)P(=O)(Oc1occc1Cc1cccc(F)c1)N(CC)CC | 5 | 17.5 | 52.5 | 42.5 | 30 | 23.3 | 36.6 | 23.3 | 15
CCN(CC)P(=O)(Oc1ccco1)N(CC)CC | 2.5 | 10 | 22.5 | 10 | 7.5 | 22.5 | 25 | 22.5 | 12.5
O=P(NC1CCCCC1)(NC1CCCCC1)Oc1ccco1 | 70 | 70 | 12.5 | 7.5 | 2.5 | 2.5 | 10 | 2.5 | 70
CCN(CC)P(=O)(Oc1occc1Cc1cccc(Cl)c1)N(CC)CC | 0 | 7.5 | 37.5 | 22.5 | 5 | 12.5 | 12.5 | 12.5 | 12.5
COP(=S)(OC)Oc1nc(Cl)c(Cl)cc1Cl [CHLORPYRIFOS-METHYL] | 100 | 100 | 100 | 100 | 100 | 100 | 100 | 100 | 100
CCN(CC)P(=O)(Oc1occc1Cc1ccc(C)cc1)N(CC)CC | 5 | 15 | 32.5 | 25 | 20 | 25 | 30 | 25 | 17.5
O=C1C=CCO1 [FURAN-2(5H)-ONE] | 12.5 | 22.5 | 32.5 | 27.5 | 27.5 | 18.9 | 24.3 | 18.9 | 25
CCN(CC)P(=O)(Oc1occc1Cc1ccccc1Cl)N(CC)CC | 5 | 5 | 45 | 32.5 | 20 | 10 | 10 | 10 | 5
O=P(Oc1ccco1)(Oc1ccco1)N1CCCCC1 | 87.5 | 87.5 | 10 | 5 | 5 | 7.5 | 17.5 | 7.5 | 90
CCN(CC)P(=O)(Oc1occc1Cc1c(C)cccc1Cl)N(CC)CC | 5 | 15 | 37.5 | 20 | 5.3 | 20 | 20 | 20 | 20
